According to patent US20100173935A1, “Muscarinic Receptor Agonists that are Effective in the Treatment of Pain, Alzheimer's Disease and Schizophrenia” (AstraZeneca AB, priority 2006, published 2010):

Biological target: T1, hM5 (human Muscarinic receptor subtype 5) (Homo sapiens, UniProt P08912)
T1 construct: expressed in transfected cells; host or cells: CHO cells (ATCC)
T1 sequence (P08912 1-532): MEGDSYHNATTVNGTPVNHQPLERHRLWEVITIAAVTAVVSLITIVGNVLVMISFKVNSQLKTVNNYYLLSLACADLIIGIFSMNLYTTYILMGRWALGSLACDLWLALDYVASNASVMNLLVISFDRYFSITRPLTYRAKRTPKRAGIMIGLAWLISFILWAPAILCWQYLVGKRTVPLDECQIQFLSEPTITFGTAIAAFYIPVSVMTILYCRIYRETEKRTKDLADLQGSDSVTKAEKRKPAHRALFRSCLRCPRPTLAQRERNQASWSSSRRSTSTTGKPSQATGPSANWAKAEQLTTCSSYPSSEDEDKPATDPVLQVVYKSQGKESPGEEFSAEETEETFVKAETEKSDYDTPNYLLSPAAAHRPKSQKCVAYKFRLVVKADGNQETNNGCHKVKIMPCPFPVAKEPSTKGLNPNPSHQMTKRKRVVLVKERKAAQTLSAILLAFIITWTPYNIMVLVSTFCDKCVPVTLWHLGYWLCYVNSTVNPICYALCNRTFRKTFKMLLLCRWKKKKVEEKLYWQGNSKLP
Assay: Human M5 calcium mobilization FLIPR assay
Type: cell-based
Conditions: CHO cells expressing hM5, Ca2+ release
Procedure: The compound activity in the present invention (EC50 or IC50) was measured using a 384 plate-based imaging assay that monitors drug induced intracellular Ca^2+ release in whole cells. Activation of hM1 (human Muscarinic receptor subtype 1, gene bank access NM_000738), rM1 (rat Muscarinic receptor subtype 1, gene bank access NM_080773), hM3 (human Muscarinic receptor subtype 3, gene bank access NM_000740NM_000740) and hM5 (human Muscarinic receptor subtype 5, gene bank access NM_0121258), receptors expressed in CHO cells (chinese hamster ovary cells, ATCC) was quantified in a Molecular Devices FLIPR II™ instrument as an increase in fluorescent signal. Inhibition of hM3 and hM5 by compounds was determined by the decrease in fluorescent signal in response to 20 nM carbachol activation.
CHO cells were plated in 384-black polylysine coated plate (Costar) at 8000 cells/well/50 μl for 24 hours or 4000 cells/well for 48 hours in a humidified incubator (5% CO2 and 37° C.) in DMEM/F12 medium without selection agent. Prior to the experiment the cell culture medium was removed from the plates by inversion. A loading solution of 30 μl of Hank's balanced salt solution, 10 mM Hepes and 2.5 mM Probenicid at Ph 7.4 (Cat no. 311-520-VL, Wisent) with 2 μM calcium indicator dye (FLUO-3AM, Molecular Probes F14202) was added to each well. Plates were incubated at 37° C. for 60 minutes prior to start the experiment. The incubation was terminated by washing the cells four times in assay buffer, leaving a residual 25 μl buffer per well. Cell plates were then transferred to the FLIPR, ready for compound additions.
The day of experiment, carbachol and compounds were diluted in three-fold concentration range (10 points serial dilution) for addition by FLIPR instrument. For all calcium assays, a baseline reading was taken for 30 seconds followed by the addition of 12.5 μl (25 μl for hM1 and rM1) of compounds, resulting in a total well volume of 37.5 μl (50 μl for hM1 and rM1). Data were collected every 1.6 seconds for 300 seconds. For hM3 and hM5 an additional 12.5 μl of carbachol (20 nM final) was added at 300 seconds. After this addition of carbachol (producing a final volume of 50 μl), the FLIPR continued to collect data every 2 seconds for 240 seconds. The fluorescence emission was read using filter 1 (emission 520-545 nm) by the FLIPR on board CCD camera.
Calcium mobilization output data were calculated as the maximal relative fluorescence unit (RFU) minus the minal value for both compound and agonist reading frame (except for hM1 and rM1 using only the maximal RFU). Data were analyzed using sigmoidal fits of a non-linear curve-fitting program (XLfit version 5.0.6 from ID Business Solutions Limited, Guildford, UK). All EC50 and IC50 values are reported as arithmetic means±standard error of mean of ‘n’ independent experiments.

Row | SMILES | EC50
1 | CCOC(=O)N1CC[C@@H](N2CCC(n3c(=O)[nH]c4ccc(F)cc43)CC2)C1 (single isomer, unassigned) [Example 36] | > 40000 nM
2 | O=C(C1CCCC1)N1CC[C@H](N2CCC(n3c(=O)[nH]c4ccccc43)CC2)C1 [Example 19, 1-{1-[(3S)-1-(cyclopentylcarbonyl)pyrrolidin-3-yl]piperidin-4-yl}-1,3-dihydro-2H-benzimidazol-2-one] | 833 nM
3 | O=C1CCCN1CCC(=O)N1CC[C@H](N2CCC(N3C(=O)Cc4ccccc43)CC2)C1 [Example 29, 1-(1-{(3S)-1-[3-(2-oxopyrrolidin-1-yl)propanoyl]pyrrolidin-3-yl}piperidin-4-yl)-1,3-dihydro-2H-indol-2-one] | 708 nM
4 | CCOC(=O)N1CC[C@H](N2CCC(n3c(=O)[nH]c4ccc(F)cc43)CC2)C1 (single isomer, unassigned) [Example 35] | 905 nM
5 | CCOC(=O)N1CCC(N2CCC(C3C(=O)Nc4ccccc43)CC2)C1 (stereo not drawn) [Example 13, Ethyl 3-[4-(2-oxo-2,3-dihydro-1H-indol-3-yl)piperidin-1-yl]pyrrolidine-1-carboxylate] | > 40000 nM
6 | CCOC(=O)N1CC[C@H](N2CCC(N3C(=O)Cc4ccccc43)CC2)C1 [Example 26, Ethyl (3S)-3-[4-(2-oxo-2,3-dihydro-1H-indol-1-yl)piperidin-1-yl]pyrrolidine-1-carboxylate] | 341 nM
7 | CCOC(=O)N1CC[C@H](N2CCC(n3c(=O)[nH]c4ccc(C#N)cc43)CC2)C1 [Example 41, Ethyl (3S)-3-[4-(6-cyano-2-oxo-2,3-dihydro-1H-benzimidazol-1-yl)piperidin-1-yl]pyrrolidine-1-carboxylate] | 534 nM
8 | Cn1c(=O)n(C2CCN([C@H]3CCN(C(=O)CCN4CCCC4=O)C3)CC2)c2ccccc21 [Example 24, 1-methyl-3-(1-{(3S)-1-[3-(2-oxopyrrolidin-1-yl)propanoyl]pyrrolidin-3-yl}piperidin-4-yl)-1,3-dihydro-2H-benzimidazol-2-one] | > 40000 nM
9 | CCOC(=O)N1CC[C@@H](N2CCC(n3c(=O)[nH]c4ccccc43)CC2)C1 [Example 16, Ethyl (3R)-3-[4-(2-oxo-2,3-dihydro-1H-benzimidazol-1-yl)piperidin-1-yl]pyrrolidine-1-carboxylate] | > 40000 nM
